From patent US6191150A, “Formamide compounds as therapeutic agents” (Glaxo Wellcome Inc., priority 1998, dated 2001)
Read-outs that look alike come from different tables or passages of the source.

Columns and labels:
[1] = target: stromelysin-1 (Homo sapiens, UniProt P08254); test: Matrix metalloprotease inhibition, fluorogenic substrate: stromelysin-1; type: biochemical
Protocol: (§1) Assays are conducted in a total volume of 0.180 mL assay buffer (200 mM NaCl, 50 mM Tris, 5 mM CaCl2, 10 μM ZnSO4, 0.005% Brij 35, pH 7.6) in each well of a black 96-well microtiter plate. 19 kD collagenase-1, 20 kD collagenase-3, stromelysin-1,and 50 kD gelatinase B concentrations are adjusted to 500 pM, 30 pM, 5 nM, and 100 pM, respectively. A dose response is generated using an eleven-point, 3-fold serial dilution with initial starting test compound concentrations of 100, 10, or 1 μM. Inhibitor and enzyme reactions are incubated for 30 minutes at ambient temperature and then initiated with 10 μM fluorogenic substrate (above). The product formation is measured at Excitation343 /Emission450 nm after 45-180 minutes using a Fluostar SLT fluorescence analyzer. Percent inhibition is calculated at each inhibitor concentration and the data are plotted using standard curve fitting programs. IC50 values are determined from these curves. Assays are run at low substrate concentration ([S]<<Km) such that the calculated IC50 values are equivalent to Ki within experimental error.

[2] = tested on: serum TNFα; test: Murine LPS-stimulated serum TNF inhibition; type: in vivo, mouse (C3/hen female mice); conditions: s.c., 40 mg/kg, 10 min prior to 200 μg/kg i.p. LPS; 90 min after LPS
Protocol: USA) for a final DMSO concentration of 1%. The dosing solution is sonicated briefly and 0.2 mL is injected subcutaneously 10 min prior to LPS injection, b) for per oral (p.o.) administration, test compounds are formulated in 0.2 mL of PBS and 0.1% Tween 80 and given orally via gavage 10 min prior to LPS administration.
Blood is immediately taken from the caudal vena cava and plasma prepared and frozen at -80° C. Plasma concentrations of TNF are measured by ELISA (Genzyme Co., Cambridge Mass.).

[3] = tested on: release of soluble tumor necrosis factor α from stimulated monocytes; test: Cell-based TNFα release inhibition, LPS/PMA-stimulated MonoMac 6 cells, ELISA; conditions: Homo sapiens, MONO-MAC-6, 37° C., 2 h
Protocol: Compounds (10 mM) are serially diluted 1:3 in DMSO. Compound dilutions (20 μL) are added to a sterile round bottom 96 well plate (20 μL:200 μL total volume=1:10 for final concentrations of […] for test compounds). MonoMac 6 cell suspension (130 μL, 1.5×10^6 cells/mL) is then added to each well resulting in 2×10^5 cells/well. LPS/PMA (50 μL) solution is then added to each well (final concentrations of 10 ng/mL and 30 ng/mL respectively). The plate is incubated at 37° C. for 2 h then spun at 1,500 rpm for 3 min to pellet cells. The supernatant (120 μL/well) is removed to a new round bottom 96 well plate and diluted 1:10 in PBS. Then, 20 μL of the supernatant is transferred to a Cistron […] ELISA plate and processed according to the manufacturer's instructions to quantitate levels of TNFα. Percent inhibition of TNFα release is calculated at each inhibitor concentration and the data are plotted using standard curve fitting programs. IC50 values are determined from these curves.

[4] = target: T1, 19 kD truncated collagenase-1 (MMP-1) (Homo sapiens, UniProt P03956); test: Matrix metalloprotease inhibition, fluorogenic substrate: collagenase-1; type: biochemical
T1 construct: 19 kD truncated collagenase-1 (MMP-1)
T1 sequence (P03956 101-269 limits assumed): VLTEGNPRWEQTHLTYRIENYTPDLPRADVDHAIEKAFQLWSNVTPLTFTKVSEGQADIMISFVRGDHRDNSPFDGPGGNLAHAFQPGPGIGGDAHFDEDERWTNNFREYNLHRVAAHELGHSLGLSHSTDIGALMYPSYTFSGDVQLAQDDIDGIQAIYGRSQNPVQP
Protocol: as §1

[5] = target: T2, TNFα Converting Enzyme (Homo sapiens, UniProt P78536); test: TNFα converting enzyme inhibition, MonoMac 6 membrane preparation, radiolabeled substrate SPA; type: biochemical; for TNFα Converting Enzyme Ki: 200 nM substrate
T2 construct: Membrane preparation from MonoMac 6 cells; endogenous in cells; host or cells: MonoMac 6 cells, subfractionated membrane preparation
T2 sequence (P78536 215-824): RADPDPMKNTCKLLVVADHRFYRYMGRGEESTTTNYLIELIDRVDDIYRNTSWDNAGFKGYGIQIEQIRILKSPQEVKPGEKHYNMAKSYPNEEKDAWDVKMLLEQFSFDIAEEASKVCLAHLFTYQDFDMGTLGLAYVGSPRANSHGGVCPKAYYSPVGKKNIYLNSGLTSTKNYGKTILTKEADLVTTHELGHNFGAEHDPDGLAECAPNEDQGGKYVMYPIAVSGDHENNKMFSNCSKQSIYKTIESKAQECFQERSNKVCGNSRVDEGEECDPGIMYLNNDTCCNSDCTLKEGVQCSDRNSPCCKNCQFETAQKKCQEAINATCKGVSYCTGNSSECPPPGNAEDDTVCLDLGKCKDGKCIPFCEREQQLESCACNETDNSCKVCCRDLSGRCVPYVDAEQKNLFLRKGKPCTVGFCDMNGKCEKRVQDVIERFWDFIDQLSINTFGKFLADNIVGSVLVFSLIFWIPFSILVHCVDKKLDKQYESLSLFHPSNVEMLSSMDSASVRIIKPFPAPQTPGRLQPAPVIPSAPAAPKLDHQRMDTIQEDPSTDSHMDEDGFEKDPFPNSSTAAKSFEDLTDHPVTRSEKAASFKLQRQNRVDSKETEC
Protocol: The reaction is quenched by addition of streptavidin SPA beads (Amersham RPNQ0006), with excess binding capacity relative to substrate, suspended in 250 mM EDTA, pH 8.0. Binding is complete within 15 minutes and plates are counted in a Wallac 1450 Microbeta liquid scintillation counter. Percent inhibition is calculated at each inhibitor concentration and the data are plotted using standard curve fitting programs. IC50 values are determined from these curves. Assays are run at low substrate concentration ([S]<<Km) such that the calculated IC50 values are equivalent to Ki within experimental error.

[6] = read-out: TNFα Converting Enzyme Ki

Sequence of stromelysin-1 (P08254 100-477): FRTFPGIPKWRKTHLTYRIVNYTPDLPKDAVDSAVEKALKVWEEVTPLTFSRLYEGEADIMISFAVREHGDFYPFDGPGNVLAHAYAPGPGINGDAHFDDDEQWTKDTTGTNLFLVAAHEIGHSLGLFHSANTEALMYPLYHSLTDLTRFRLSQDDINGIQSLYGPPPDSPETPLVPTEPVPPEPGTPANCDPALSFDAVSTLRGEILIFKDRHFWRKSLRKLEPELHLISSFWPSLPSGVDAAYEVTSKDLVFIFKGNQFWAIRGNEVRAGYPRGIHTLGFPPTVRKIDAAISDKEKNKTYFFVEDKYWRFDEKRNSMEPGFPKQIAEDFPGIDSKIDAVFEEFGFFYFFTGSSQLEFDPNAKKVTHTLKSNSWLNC

SMILES	Ki [1] [nM]	Percentage Inhibition of Serum TNFα [2]	IC50 [3] [nM]	Ki [4] [nM]	Ki [5, 6] [nM]	Ki [5] [nM]
CCC[C@@H]([C@@H](CC(C)C)C(=O)N[C@@H](CCCNC(N)=N[N+](=O)[O-])C(=O)Nc1nccs1)N(O)C=O [Example 1, (2R,3S)-3-(Formyl-hydroxyamino)-2-(2-methyl-1-propyl)hexanoic Acid [(1S)-4-(nitroimino-amino)methylamino-1-(1,3-thiazol-2-ylcarbamoyl)-1-butyl]amide]	< 50	+++ (>75%)	< 50	< 50	–	–
CCC[C@@H]([C@@H](CC1CCCCC1)C(=O)N[C@@H](CCCNC(N)=N[N+](=O)[O-])C(=O)Nc1nccs1)N(O)C=O [Example 2, (2R,3S)-3-(Formyl-hydroxyamino)-2-(cyclohexylmethyl)hexanoic Acid [(1S)-4-(nitroimino-amino)methylamino-1-(1,3-thiazol-2-ylcarbamoyl)-1-butyl]amide]	50 to 250	++ (50%-75%)	< 50	50 to 250	< 50	–
CC(C)C[C@@H](C(=O)N[C@H](C(=O)Nc1nccs1)[C@H](C)CCNC(N)=N[N+](=O)[O-])[C@H](C)N(O)C=O [Example 3, (2R,3S)-3-(Formyl-hydroxyamino)-2-(2-methyl-1-propyl)butanoic Acid [(1S,2R)-2-Methyl-4-(nitroimino-amino)methylamino-1-(1,3-thiazol-2-ylcarbamoyl)-1-butyl]amide]	50 to 250	–	< 50	< 50	< 50	–
CCC[C@@H]([C@@H](CC(C)C)C(=O)N[C@H](C(=O)Nc1nccs1)[C@H](C)CCNC(N)=N[N+](=O)[O-])N(O)C=O [Example 4, (2R,3S)-3-(Formyl-hydroxyamino)-2-(2-methyl-1-propyl)hexanoic Acid [(1S,2R)-2-Methyl-4-(nitroimino-amino)methylamino-1-(1,3-thiazol-2-ylcarbamoyl)-1-butyl]amide]	50 to 250	–	< 50	< 50	< 50	–
CC(C)C[C@@H](C(=O)N[C@@H](CCCNC(N)=N[N+](=O)[O-])C(=O)Nc1nccs1)[C@H](Cc1ccccc1)N(O)C=O [Example 5]	< 50	–	250 to 500	< 50	–	–
NC(=N[N+](=O)[O-])NCCC[C@H](NC(=O)[C@H](CC1CCCCC1)[C@H](CCC(F)(F)F)N(O)C=O)C(=O)Nc1nccs1 [Example 6, (2R,3S)-3-(Formyl-hydroxyamino)-2-(cyclohexylmethyl)-6,6,6-trifluorohexanoic Acid [(1S)-4-(nitroimino-amino)methylamino-1-(1,3-thiazol-2-ylcarbamoyl)-1-butyl]amide]	50 to 250	++ (50%-75%)	50 to 250	50 to 250	< 50	–
CCC[C@@H]([C@@H](CC1CCC(C)CC1)C(=O)N[C@@H](CCCNC(N)=N[N+](=O)[O-])C(=O)Nc1nccs1)N(O)C=O (stereo partly drawn) [Example 7, (2R,3S)-3-(Formyl-hydroxyamino)-2-(4-methylcyclohexyl-methyl)hexanoic Acid [(1S)-4-(nitroimino-amino)methyl-amino-1-(1,3-thiazol-2-ylcarbamoyl)-1-butyl]amide]	50 to 250	++ (50%-75%)	50 to 250	50 to 250	< 50	–
CC1CCC(C[C@@H](C(=O)N[C@@H](CCCNC(N)=N[N+](=O)[O-])C(=O)Nc2nccs2)[C@H](C(C)C)N(O)C=O)CC1 (stereo partly drawn) [Example 8, (2R,3S)-3-(Formyl-hydroxyamino)-2-(4-methylcyclohexyl-methyl)-4-methylpentanoic Acid [(1S)-4-(nitroimino-amino)methylamino-1-(1,3-thiazol-2-ylcarbamoyl)-1-butyl]amide]	50 to 250	++ (50%-75%)	< 50	50 to 250	–	–
CCC[C@@H]([C@@H](Cc1ccc(C)s1)C(=O)N[C@@H](CCCNC(N)=N[N+](=O)[O-])C(=O)Nc1nccs1)N(O)C=O [Example 9, (2R,3S)-3-(Formyl-hydroxyamino)-2-(5-methyl-2-thio-phenemethyl)hexanoic Acid [(1S)-4-((nitroimino-amino)methylamino)-1-(1,3-thiazol-2-ylcarbamoyl)-1-butyl]amide]	50 to 250	–	50 to 250	> 1000	–	–
NC(=N[N+](=O)[O-])NCCC[C@H](NC(=O)[C@H](CC1CCCCC1)[C@H](C1CC1)N(O)C=O)C(=O)Nc1nccs1 [Example 10, (2R,3S)-3-(Formyl-hydroxyamino)-2-(cyclohexylmethyl)-3-cyclopropylpropanoic Acid [(1S)-4-(nitroimino-amino)methylamino-1-(1,3-thiazol-2-ylcarbamoyl)-1-butyl]amide]	> 1000	++ (50%-75%)	250 to 500	50 to 250	–	< 50
